Reference: patent publication EP0539170A1, “Benzodiazepine derivatives and their use as antagonists of cholecystokinin and/or gastrin receptors” (priority 1991, dated 1993)
Where a name gives a salt, the structure may show the parent alone.

Molecular target: T1, CCK Receptor (Pancreas) (Rattus norvegicus, UniProt P30551)
T1 construct: The whole pancreas was dissected free of fat tissue and was homogenized; from tissue; host or cells: rat pancreas membrane homogenate
T1 sequence (P30551 1-444): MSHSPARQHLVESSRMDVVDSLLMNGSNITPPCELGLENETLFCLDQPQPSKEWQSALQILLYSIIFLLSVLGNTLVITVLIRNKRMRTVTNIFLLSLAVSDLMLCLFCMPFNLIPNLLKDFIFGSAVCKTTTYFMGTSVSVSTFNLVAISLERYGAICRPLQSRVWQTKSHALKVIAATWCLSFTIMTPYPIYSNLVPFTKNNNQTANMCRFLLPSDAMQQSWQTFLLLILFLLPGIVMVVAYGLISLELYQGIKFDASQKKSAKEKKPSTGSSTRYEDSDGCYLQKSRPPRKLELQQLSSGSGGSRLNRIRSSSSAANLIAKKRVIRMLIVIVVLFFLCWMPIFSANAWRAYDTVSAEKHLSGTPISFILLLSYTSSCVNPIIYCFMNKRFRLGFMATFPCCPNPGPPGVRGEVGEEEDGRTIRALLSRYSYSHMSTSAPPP
Test: CCK Receptor Binding (Pancreas), inhibition of specific 125I-CCK-8 binding
Design: species or system Sprague-Dawley rats
Settings: rat whole pancreas membranes; 50 pM 125I-CCK-8; 25°C for 2 hours
Protocol: CCK-8 sulphated was radiolabelled with ¹²⁵I-Bolton Hunter reagent (2000 Ci/mmole). Receptor binding was performed according to Chang and Lotti (Proc. Natl. Acad. Sci. 83, 4923-4926, 1986) with minor modifications.
Male Sprague-Dawley rats (150-200g) were sacrificed by decapitation. The whole pancreas was dissected free of fat tissue and was homogenized in 25 volumes of ice-cold 10 mM N-2-hydroxyethyl-piperazine-N′-2-ethane sulphonic acid (HEPES) buffer with 0.1% soya bean trypsin inhibitor (pH 7.4 at 25°C) with a Kinematica Polytron. The homogenates were centrifuged at 47,800 g for 10 min. Pellets were resuspended in 10 volumes of binding assay buffer (20mM (HEPES)), 1mM ethylene glycol-bis-(β-aminoethylether-N,N′-tetraacetic acid) (EGTA), 5mM MgCl₂, 150 mM NaCl, bacitracin 0.25 mg/ml, soya bean trypsin inhibitor 0.1 mg/ml, and bovine serum albumin 2 mg/ml pH 6.5 at 25°C) using a Teflon (trademark) homogenizer, 15 strokes at 500 rpm. The homogenate was further diluted in binding assay buffer to give a final concentration of 0.5 mg original wet weight/1 ml buffer. […] All assays were run in duplicate. The reaction mixtures were incubated at 25°C for 2 hours and the reaction terminated by rapid filtration (Brandell 24 well cell harvester) over Whatman GF/C filters, washing 3 x 4 mls with ice-cold 100 Mm NaCl. The radioactivity on the filters was counted with a LKB gamma counter.
Drug displacement studies were performed with at least 10 concentrations of compounds of Formula I and the IC₅₀ values were determined by regression analysis IC₅₀ refers to the concentration of the compound required to inhibit 50% of specific binding of ¹²⁵I-CCK-8.

IC50 [nM] | SMILES
16.7 | CN1C(=O)C(NC(=O)Nc2ccc(F)c(F)c2)N=C(N2CCCCCC2)c2ccccc21 (racemic) [Example 57, N-[3(R,S)-2,3-Dihydro-5-(homopiperidin-1-yl)-1-methyl-2-oxo-1H-1,4-benzodiazepin-3-yl]-N′-[3,4-difluorophenyl] urea]
57.2 | CN(C)c1cccc(NC(=O)NC2N=C(N3CCCCCC3)c3ccccc3N(C)C2=O)c1 (racemic) [Example 49, N-[3(R,S)-2,3-Dihydro-5-(homopiperidin-1-yl)-1-methyl-2-oxo-1H-1,4-benzodiazepin-3-yl]-N′-[3-(dimethylamino)phenyl] urea]
31.4 | CN1C(=O)C(NC(=O)Nc2cccc(C(F)(F)F)c2)N=C(N2CCCCCC2)c2ccccc21 (racemic) [Example 48, N-[3(R,S)-2,3-Dihydro-5-(homopiperidin-1-yl)-1-methyl-2-oxo-1H-1,4-benzodiazepin-3-yl]-N′-[3-trifluoromethylphenyl] urea]
21.4 | CN1C(=O)C(NC(=O)Nc2cccc(-c3cc(=O)c(O)co3)c2)N=C(N2CCCCCC2)c2ccccc21 (racemic) [Example 62, N-[3(R,S)-2,3-Dihydro-5-(homopiperidin-1-yl)-1-methyl-2-oxo-1H-1,4-benzodiazepin-3-yl]-N′-[3-(5-hydroxy-4-pyron-2-yl)phenyl] urea]
> 3000 | CCCN1C(=O)C(NC(=O)Nc2cccc(C)c2)N=C(N2CCNCC2)c2ccccc21 (racemic) [Example 36, N-[3(R,S)-2,3-Dihydro-2-oxo-5-(piperazin-1-yl)-1-propyl-1H-1,4-benzodiazepin-3-yl]-N′-[3-methylphenyl] urea]
17.2 | Cc1cccc(NC(=O)NC2N=C(N3CCSCC3)c3ccccc3N(C)C2=O)c1 (racemic) [Example 65, N-[3(R,S)-2,3-Dihydro-1-methyl-2-oxo-5-(thiomorpholin-4-yl)-1H-1,4-benzodiazepin-3-yl]-N′-[3-methylphenyl] urea]
3.48 | CCc1cccc(NC(=O)NC2N=C(N3CCCCCC3)c3ccccc3N(C)C2=O)c1 (single isomer, unassigned; (+)) [Example 68, (+)-N-[2,3-Dihydro-5-(homopiperidin-1-yl)-1-methyl-2-oxo-1H-1,4-benzodiazepin-3-yl]-N′-[3-ethylphenyl] urea hydrochloride]
4.39 | CCc1cccc(NC(=O)NC2N=C(N3CCCCCC3)c3ccccc3N(C)C2=O)c1 (racemic) [Example 63, N-[3(R,S)-2,3-Dihydro-5-(homopiperidin-1-yl)-1-methyl-2-oxo-1H-1,4-benzodiazepin-3-yl]-N′-[3-ethylphenyl] urea]
23.4 | CCCN1C(=O)C(NC(=O)Nc2cccc(C)c2)N=C(N2CCCCCC2)c2ccccc21 (racemic) [Example 47, N-[3(R,S)-2,3-Dihydro-5-(homopiperidin-1-yl)-2-oxo-1-propyl-1H-1,4-benzodiazepin-3-yl]-N′-[3-methylphenyl] urea]
7.16 | CN1C(=O)C(NC(=O)Nc2cccc(F)c2)N=C(N2CCCCCC2)c2ccccc21 (racemic) [Example 60, N-[3(R,S)-2,3-Dihydro-5-(homopiperidin-1-yl)-1-methyl-2-oxo-1H-1,4-benzodiazepin-3-yl]-N′-[3-fluorophenyl] urea]
> 3000 | CCCN1C(=O)C(NC(=O)Nc2cccc(NC(=O)NC)c2)N=C(N2CCN(C)CC2)c2ccccc21 (single isomer, unassigned; (+)) [Example 40, (+)-N-[2,3-Dihydro-5-(4-methylpiperazin-1-yl)-2-oxo-1-propyl-1H-1,4-benzodiazepin-3-yl]-N′-[3-(methylaminocarbonylamino)phenyl] urea]
18.4 | Cc1cccc(NC(=O)NC2N=C(N3CCCCCCC3)c3ccccc3N(C)C2=O)c1 (racemic) [Example 43, N-[3(R,S)-2,3-Dihydro-5-(heptamethyleneimin-1-yl)-1-methyl-2-oxo-1H-1,4-benzodiazepin-3-yl]-N#MIN#-[3-methylphenyl] urea]
956 | CCCN1C(=O)C(NC(=O)Nc2cccc(C)c2)N=C(N2CCN(C)CC2)c2ccc(N(C)C)cc21 (racemic) [Example 45, N-[3(R,S)-2,3-Dihydro-8-dimethylamino-5-(4-methylpiperazin-1-yl)-2-oxo-1-propyl-1H-1,4-benzodiazepin-3-yl]-N′-[3-methylphenyl] urea]
1600 | CCCN1C(=O)C(NC(=O)Nc2cccc(C)c2)N=C(N2CCN(C)CC2)c2cc(C)ccc21 (racemic) [Example 38, N-(3(R,S)-2,3-Dihydro-7-methyl-5-(4-methylpiperazin-1-yl)-2-oxo-1-propyl-1H-1,4-benzodiazepin-3-yl]-N′-[3-methylphenyl]urea]

The next lines start with the molecule.

SMILES | IC50 [nM]
CCCN1C(=O)C(NC(=O)Nc2cccc(OC)c2)N=C(N2CCN(C)CC2)c2ccccc21 (racemic) [Example 12, N-[3(R,S)-2,3-Dihydro-5-(4-methylpiperazin-1-yl)-2-oxo-1-propyl-1H-1,4-benzodiazepin-3-yl]-N#MIN#-[3-methoxyphenyl] urea] | > 3000
CCCN1C(=O)C(NC(=O)Nc2ccc3c(c2)CCC3)N=C(N2CCN(C)CC2)c2ccccc21 (single isomer, unassigned; (-)) [Example 34, (-)-N-[2,3-Dihydro-5-(4-methylpiperazin-1-yl)-2-oxo-1-propyl-1H-1,4-benzodiazepin-3-yl]-N′-[5-indanyl] urea] | > 3000
CCc1cccc(NC(=O)NC2N=C(N3CCN(C)CC3)c3ccccc3N(C)C2=O)c1 (racemic) [Example 5, N-[3(R,S)-2,3-Dihydro-1-methyl-5-(4-methylpiperazin-1-yl)-2-oxo-1H-1,4-benzodiazepin-3-yl] N′-[3-ethylphenyl] urea] | 4320
CCCN1C(=O)C(NC(=O)Nc2ccc3c(c2)CCC3)N=C(N2CCN(C)CC2)c2ccccc21 (racemic) [Example 33, N-[3(R,S)-2,3-Dihydro-5-(4-methylpiperazin-1-yl)-2-oxo-1-propyl-1H-1,4-benzodiazepin-3-yl]-N′-[5-indanyl] urea] | > 3000
CN1CCN(C2=NC(NC(=O)Nc3cccc(-c4nnn(C)n4)c3)C(=O)N(C)c3ccccc32)CC1 (racemic) [Example 13, N-[3(R,S)-2,3-Dihydro-1-methyl-2-oxo-5-(4-methylpiperazin-1-yl)-1H-1,4-benzodiazepin-3-yl]-N′-[3-(2-methyltetrazol-5-yl)phenyl] urea] | > 3000
CCc1cccc(NC(=O)NC2N=C(N3CCN(C)CC3)c3ccccc3N(CC(C)C)C2=O)c1 (racemic) [Example 23, N-[3(R,S)-2,3-Dihydro-5-(4-methylpiperazin-1-yl)-1-(2-methylpropyl)-2-oxo-1H-1,4-benzodiazepin-3-yl]-N′-[3-ethylphenyl] urea] | 2400
COc1cccc(NC(=O)NC2N=C(N3CCN(C)CC3)c3ccccc3N(C)C2=O)c1 (racemic) [Example 10, N-[3(R,S)-2,3-Dihydro-1-methyl-5-(4-methylpiperazin-1-yl)-2-oxo-1H-1,4-benzodiazepin-3-yl]-N#MIN#-[3-methoxyphenyl] urea] | 900
Cc1ccc(NC(=O)NC2N=C(N3CCN(C)CC3)c3ccccc3N(C)C2=O)cc1 (racemic) [Example 6, N-[3(R,S)-2,3-Dihydro-1-methyl-5-(4-methylpiperazin-1-yl-2-oxo-1H-1,4-benzodiazepin-3-yl] N′-[4-methylphenyl]urea] | > 3000
CN1CCN(C2=NC(NC(=O)Nc3cccc(-c4nnnn4C)c3)C(=O)N(C)c3ccccc32)CC1 (racemic) [Example 14, N-[3(R,S)-2,3-Dihydro-1-methyl-2-oxo-5-(4-methylpiperazin-1-yl)-1H-1,4-benzodiazepin-3-yl)-N′-[3-(1-methyltetrazol-5-yl)phenyl] urea] | > 3000
Cc1cccc(NC(=O)NC2N=C(N3CCCC3)c3ccccc3N(C)C2=O)c1 (racemic) [Example 2, N-[3(R,S)-2.3-Dihydro-1-methyl-2-oxo-5-(pyrrolidin-1-yl)-1H-1,4-benzodiazepin-3-yl] N′-[3-methylphenyl] urea] | 612
CCCN1C(=O)C(NC(=O)Nc2cccc(C)c2)N=C(N2CCN(C)CC2)c2ccccc21 (single isomer, unassigned; (-)) [Example 24, (-)-N-(2,3-Dihydro-5-(4-methylpiperazin-1-yl)-2-oxo-1-propyl-1H-1,4-benzodiazepin-3-yl]-N′-[3-methylphenyl] urea] | > 3000
